Experimental data published in patent US20110160059A1, “Herbicidal compositions comprising flufenacet” (Bayer CropScience AG, priority 2009, published 2011).

Assays:
Type in all cases: in vivo
[1] = test system: APESV=Apera spica-venti=weed; assay: Greenhouse trial, post-emergence action against weeds (test method 1); settings: PO application, about 3 weeks after application
Description: (§1) In the standard design of the test, seeds of various broad-leaved weed and weed grass biotypes (origins) were sown in a 8-13 cm diameter pot filled with natural soil of a standard field soil (loamy silt; non-sterile) and covered with a covering soil layer of about 1 cm. The pots were then cultivated in a greenhouse (12-16 h of light, temperature day 20-22° C., night 15-18° C.) until the time of application. The pots were treated on a laboratory track sprayer with spray liquors comprising the compositions according to the invention, mixtures of the prior art or components used individually. Application of the active compounds or active compound combinations formulated as WG, WP, EC or otherwise was carried out at the appropriate growth stages of the plants. The application rate for the spray application was 100-600 l of water/ha. After the treatment, the plants were returned to the greenhouses.
(§2) About 3 weeks after the application, the soil action or/and foliar action was assessed visually according to a scale of 0-100% in comparison to an untreated comparative group: 0%=no noticeable effect compared to the untreated comparative group; 100%=full effect compared to the untreated comparative group.
(§3) (notes: the term “seeds” also includes vegetative propagation forms such as, for example, rhizome pieces; abbreviations used: h light=hours of illumination, g of AS/ha=gram of active substance per hectare, l/ha=liter per hectare, S=sensitive, R=resistant) • 1. Post-emergence action against weeds: seeds of various broad-leaved weed and weed grass biotypes (origins) were sown in a 8-13 cm diameter pot filled with natural soil of a standard field soil (loamy silt; non-sterile) and covered with a covering soil layer of about 1 cm. The pots were then cultivated in a greenhouse (12-16 h of light, temperature day 20-22° C., night 15-18° C.) until the time of application. The pots were treated at various BBCH stages between 11-25 of the seeds/plants, i.e. generally between two to three weeks after the start of the cultivation, on a laboratory track sprayer with spray liquors comprising the compositions according to the invention, mixtures or components used individually, as WG, WP, EC or other formulations. The application rate for the spray application was 100-600 l of water/ha. After the treatment, the plants were returned to the greenhouses and, when required, treated with fertilizer and watered. • 2. Selective post-emergence action: seeds of various crop species (origins) were sown in a 8-13 cm diameter pot filled with natural soil of a standard field soil (loamy silt; non-sterile) and covered with a covering soil layer of about 1 cm. The pots were then cultivated in a greenhouse (12-16 h of light, temperature day 20-22° C., night 15-18° C.) until the time of application. The pots were treated at various BBCH stages between 11-32 of the seeds/plants, i.e. generally between two to four weeks after the start of the cultivation, on a laboratory track sprayer with spray liquors comprising the compositions according to the invention, mixtures or components used individually, as WG, WP, EC or other formulations. The application rate for the spray application was 100-600 l of water/ha. After the treatment, the plants were returned to the greenhouses and, when required, treated with fertilizer and watered. The pots were cultivated in a greenhouse (12-16 h light, temperature day 20-22° C., night 15-18° C.).
(§4) Insofar as herbicidal effects of the compositions according to the invention compared to mixtures of the prior art or compared to components applied individually against economically important mono- and dicotyledonous harmful plants were the center of attention, the synergistic herbicidal activities were calculated using Colby's formula (cf. S. R. Colby; Weeds 15 (1967), 20-22): […]

[2] = test system: VIOAR=Viola arvensis=weed; assay: as above; settings: PO application, about 3 weeks after application
Description: as §1, §2, §3, §4

[3] = test system: HORVS=Hordeum vulgare, summer barley=crop plant; assay: Greenhouse trial, selective post-emergence action on crop (test method 2)
Description: as §1, §2
(notes: the term “seeds” also includes vegetative propagation forms such as, for example, rhizome pieces; abbreviations used: h light=hours of illumination, g of AS/ha=gram of active substance per hectare, l/ha=liter per hectare, S=sensitive, R=resistant) • 1. […]
as §4

## CC(Oc1ccc(Oc2ccc(Cl)cc2Cl)cc1)C(=O)O (racemic) [(B) diclofop, (±)-2-[4-(2,4-dichlorophenoxy)phenoxy]propanoic acid]
[1]; 378 g of AS/ha
  activity on APESV, visual scale 0-100% vs untreated: 0%
[2]; 378 g of AS/ha
  activity on VIOAR, visual scale 0-100% vs untreated: 0%
[3]; PO application, 378 g of AS/ha, about 3 weeks after application, greenhouse
  activity (crop damage) on HORVS, visual scale 0-100% vs untreated: 20%

## CC(C)N(C(=O)COc1nnc(C(F)(F)F)s1)c1ccc(F)cc1 [(A) flufenacet, N-(4-fluorophenyl)-N-(1-methylethyl)-2-[[5-(trifluoromethyl)-1,3,4-thiadiazol-2-yl]oxy]acetamide]
[1]; 120 g of AS/ha
  activity on APESV, visual scale 0-100% vs untreated: 60%
[2]; 120 g of AS/ha
  activity on VIOAR, visual scale 0-100% vs untreated: 40%
[3]; Hordeum vulgare (summer barley), in vivo, po
  activity (crop damage) on HORVS, visual scale 0-100% vs untreated: 40%

## CSc1nnc(C(C)(C)C)c(=O)n1N [(C) metribuzin, 4-amino-6-(1,1-dimethylethyl)-3-(methylthio)-1,2,4-triazin-5(4H)-one]
[1]; 140 g of AS/ha
  activity on APESV, visual scale 0-100% vs untreated: 79%
[2]; 140 g of AS/ha
  activity on VIOAR, visual scale 0-100% vs untreated: 90%
[3]; PO application, 140 g of AS/ha, about 3 weeks after application, greenhouse
  activity (crop damage) on HORVS, visual scale 0-100% vs untreated: 70%
